Assay results taken from patent US7989585B2, “Chronic treatment regimen using glucagon-like insulinotropic peptides” (Eli Lilly and Company, priority 2000, dated 2011).
No end group written: not given here.

Experiments:
human GLP-1 receptor = biological target: T1, human GLP-1 receptor (Homo sapiens, UniProt P43220); test: In vitro potency assay (CRE-BLAM fluorescence assay); assay type: cell-based; conditions: for In vitro activity relative to Val^8-GLP-1(7-37)OH: from EC50, HEK-293 Aurora CRE-BLAM cells, Val^8-GLP-1(7-37)OH control = 1; for potency higher than Val^8-GLP-1(7-37)OH: in vitro potency, approximate
T1 construct: expressed in transfected cells; host or cells: HEK-293 Aurora CRE-BLAM cells
Text: The assay is discussed in more detail on page 17 and in example 3.
These HEK-293 cells have stably integrated a DNA vector having a cAMP response element (CRE) driving expression of the β-lactamase (BLAM) gene. […] The assay is further described in Zlokarnik, et al. (1998) Science 279:84-88 (See also Example 3).
The day after seeding, the medium is replaced with plasma free medium.

[1] = cited from earlier work

T1 sequence (P43220 24-463): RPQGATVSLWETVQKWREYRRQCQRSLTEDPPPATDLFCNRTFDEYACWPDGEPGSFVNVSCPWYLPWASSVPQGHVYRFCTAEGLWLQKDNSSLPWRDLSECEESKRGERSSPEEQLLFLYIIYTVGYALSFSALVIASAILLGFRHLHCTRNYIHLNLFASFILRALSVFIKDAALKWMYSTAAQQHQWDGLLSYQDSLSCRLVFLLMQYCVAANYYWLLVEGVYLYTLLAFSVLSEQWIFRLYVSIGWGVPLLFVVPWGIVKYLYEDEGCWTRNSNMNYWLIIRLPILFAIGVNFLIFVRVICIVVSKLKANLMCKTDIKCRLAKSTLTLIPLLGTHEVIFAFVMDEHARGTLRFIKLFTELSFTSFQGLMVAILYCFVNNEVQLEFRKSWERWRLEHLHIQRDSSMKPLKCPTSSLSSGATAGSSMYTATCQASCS

In vitro activity relative to Val^8-GLP-1(7-37)OH (human GLP-1 receptor) | Substance | also measured
1.92 | Arg^34Lys^26-(N-ε-(γ-Glu(N-α-hexadecanoyl)))-GLP-1(7-37) [reference compound] | 
1.06 | Val^8-GLP-1(7-36)NH2 | 
1.13 | Val^8-Leu^16-GLP-1(7-37)OH | 
1.22 | Val^8-Lys^22-GLP-1(7-37)OH | 
1.07 | Val^8-Trp^12-GLP-1(7-37)OH | 
1.73 | Val^8-Tyr^12-GLP-1(7-37)OH | 

Continued, substance first:

Substance | In vitro activity relative to Val^8-GLP-1(7-37)OH (human GLP-1 receptor) | also measured
Exendin-4 [reference compound] | 4.5 | potency higher than Val^8-GLP-1(7-37)OH (human GLP-1 receptor): approximately 5 fold
GLP-1(7-37)OH |  | intact GLP-1 levels ([1]; 2.4 pmol/kg/min (Toft-Nielsen et al.)): ~22.5 picomolar; plasma levels of intact GLP-1 ([1]; continuous administration 0.75 pmol/kg/min for 180 min, last 120 min of treatment (Naslund et al.)): approximately 20 picomolar
Gly^8-GLP-1(7-37)OH (HGEGTFTSDVSSYLEGQAAKEFIAWLVKGRG-OH; UniProt P01275 98-128, looked up, variant A8G) [GLP-1 analog] | 1.67 | 
Val^8-Arg^26-GLP-1(7-37)OH | 1.47 | 
Val^8-Glu^22-GLP-1(7-37)OH | 3.33 | potency higher than Val^8-GLP-1(7-37)OH (human GLP-1 receptor): approximately 3 fold
